Laboratory results published in patent publication US9296698B2, “Amino heteroaryl compounds as beta-secretase modulators and methods of use” (Amgen Inc., priority 2009, dated 2016).
Like-named read-outs stand apart in the source and are kept apart here.

Key:
[1] = molecular target: BACE 1 (Beta Secretase enzyme) (Homo sapiens, UniProt P56817); experiment: In vitro enzymatic BACE FRET assay; assay type: biochemical; conditions: IC50 range symbols, Table 1; read-out: BACE 1 FRET assay
Outline: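 BACE activity read by FRET: peptide substrate (50 nM) carrying fluorophore and quencher across the cleavage site, incubated one hour in 0.05 M acetate pH 4.2, 10% DMSO final, 100 uM genapol. Tris addition raises pH to neutrality to stop the reaction before fluorescence is read.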

[2] = tested on: Aβ40 in conditioned medium of cells stably expressing Amyloid Precursor Protein (APP); experiment: In vitro BACE cell-based assay (HEK cell assay), Aβ40 sandwich ELISA
Outline: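 Cells stably expressing APP received 10-point compound dilutions (top 100 μM or 10 μM; 0.1% DMSO) for 24 h. Secreted Aβ40 was quantified by sandwich ELISA (pAb40 capture, biotinylated 6E10 detection, europium time-resolved fluorescence). IC50 was derived from percent inhibition versus concentration.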

[3] = Homo sapiens, HEK293, 24 h, IC50 range symbols, Table 1, Aβ40, 24 h incubation, read-out: HEK cell assay
[4] = IC50 range symbols, Table 1, Aβ40, 24 h incubation, read-out: HEK cell assay

Chain of BACE 1 (Beta Secretase enzyme) (P56817 46-501, species assumed): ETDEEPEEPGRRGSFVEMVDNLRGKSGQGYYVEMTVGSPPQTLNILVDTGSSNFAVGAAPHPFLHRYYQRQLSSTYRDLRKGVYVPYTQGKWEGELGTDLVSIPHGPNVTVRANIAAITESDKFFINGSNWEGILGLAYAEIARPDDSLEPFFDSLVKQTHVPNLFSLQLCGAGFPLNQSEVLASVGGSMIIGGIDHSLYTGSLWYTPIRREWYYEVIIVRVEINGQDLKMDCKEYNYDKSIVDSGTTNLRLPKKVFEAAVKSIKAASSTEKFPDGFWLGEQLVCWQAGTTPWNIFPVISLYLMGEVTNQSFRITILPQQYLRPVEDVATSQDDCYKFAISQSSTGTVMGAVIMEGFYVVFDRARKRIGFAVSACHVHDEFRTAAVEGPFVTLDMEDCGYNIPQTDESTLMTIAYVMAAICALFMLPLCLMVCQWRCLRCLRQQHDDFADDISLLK

Compound	IC50 [1] [nM]	IC50 [2, 3] [nM]	IC50 ([2]; Homo sapiens, HEK293, bound stated in text, read-out: IC50 value in the BACE cell-based in-vitro assay) [nM]	IC50 [2, 4] [nM]
CC(C)(C)CCNC(=O)CCc1cc2cc(-c3ccccc3C(=O)N3CCCC3)ccc2nc1N [Example 165, 3-(2-amino-6-(2-(1-pyrrolidinylcarbonyl)phenyl)-3-quinolinyl)-N-(3,3-dimethylbutyl)propanamide]	< 500	1000 to 5000	–	–
CC(Cc1cc2cc(-c3ccc(F)cc3Cl)ccc2nc1N)C(=O)NC1CCOC(C)(C)C1 (centres unmarked) [Example 166, 3-(2-amino-6-(2-chloro-4-fluorophenyl)-3-quinolinyl)-N-(2,2-dimethyltetrahydro-2H-pyran-4-yl)-2-methylpropanamide]	< 500	1000 to 5000	–	–
CC(Cc1cc2cc(-c3ccc(F)cc3)ccc2nc1N)C(=O)NC1CCOC(C)(C)C1 (centres unmarked) [Example 167, 3-(2-amino-6-(4-fluorophenyl)-3-quinolinyl)-N-(2,2-dimethyltetrahydro-2H-pyran-4-yl)-2-methylpropanamide]	1000 to 5000	> 5000	–	–
CC(Cc1cc2cc(-c3ccc(Cl)cc3)ccc2nc1N)C(=O)NC1CCOC(C)(C)C1 (centres unmarked) [Example 168, 3-(2-amino-6-(4-chlorophenyl)-3-quinolinyl)-N-(2,2-dimethyltetrahydro-2H-pyran-4-yl)-2-methylpropanamide]	< 500	< 500	–	–
CC(Cc1cc2cc(-c3cccc(Cl)c3)ccc2nc1N)C(=O)NC1CCOC(C)(C)C1 (centres unmarked) [Example 169, 3-(2-amino-6-(3-chlorophenyl)-3-quinolinyl)-N-(2,2-dimethyltetrahydro-2H-pyran-4-yl)-2-methylpropanamide]	< 500	< 500	< 100	–
Cc1ccccc1-c1ccc2nc(N)c(CC(C)C(=O)NC3CCOC4(CCC4)C3)cc2c1 [Example 170, (2R)-3-(2-amino-6-(2-methylphenyl)-3-quinolinyl)-2-methyl-N-(5-oxaspiro[35]non-8-yl)propanamide]	< 500	< 500	–	–
CC(Cc1cc2cc(-c3ccccc3Cl)ccc2nc1N)C(=O)NC1CCOC2(CCC2)C1 (centres unmarked) [Example 171, 3-(2-amino-6-(2-chlorophenyl)-3-quinolinyl)-2-methyl-N-(5-oxaspiro[3,5]non-8-yl)propanamide]	< 500	< 500	–	–
N-(2-fluorobenzyl)-3-(3-amino-7-o-tolylnaphthalen-2-yl)propanamide [Example 27]	< 500	–	–	1000 to 5000
N-(2-methoxybenzyl)-3-(3-amino-7-o-tolylnaphthalen-2-yl)propanamide [Example 61]	1000 to 5000	–	–	> 5000
N-(3-fluoro-3-methylbutyl)-2-methyl-3-(6-(3-methylpyridin-2-yl)quinolin-3-yl)propanamide [Example 101]	< 500	–	–	< 500
N-(4-fluoro-4-methylpentan-2-yl)-2-methyl-3-(6-(3-methylpyridin-2-yl)quinolin-3-yl)propanamide [Example 100]	500 to 1000	–	–	1000 to 5000
